BindingDB's records for doi:10.1021/acs.jmedchem.6b01711 (University of Strathclyde, 2017)

Experiments:
[1] = Antagonist activity at integrin alpha2b beta3 receptor in citrated human platelet-rich plasma assessed as inhibition of ADP-induced platelets aggregation preincubated for 15 mins followed by ADP addition measured for 8 mins by aggregometric analysis
[2] = Inhibition of alpha5 beta1 integrin (unknown origin) by cell migration assay
[3] = Inhibition of alpha5 beta1 integrin (unknown origin) by cell proliferation assay
[4] = Antagonist activity at integrin alpha2b beta3 receptor in citrated human platelet-rich plasma assessed as inhibition of ADP-induced platelet aggregation

Compound: CCc1nn2c(=O)cc(N3CCNCC3)nc2s1
- IC50 [1]: 9.7 µM

Compound: O=c1c(C2NCCc3c2[nH]c2ccccc32)c(O)[nH]c(=S)n1Cc1ccc(F)cc1 (centres undefined)
- IC50 [2]: 15.5 µM
- IC50 [3]: 20.5 µM

Compound: N=C(N)c1ccc2cc(OC(=O)c3ccc(N=C(N)N)cc3)ccc2c1 [4-Guanidino-benzoic acid 6-carbamimidoyl-naphthalen-2-yl ester(FUT-175)]
- IC50 [4]: 12 µM
